From ChEMBL document CHEMBL5042477, “Potent Cyclic Peptide Inhibitors of FXIIa Discovered by mRNA Display with Genetic Code Reprogramming” (J Med Chem, 2021)
Where a SMILES comes first, the peptide text is derived from it. Bridges are numbered along the chain shown (N, C = ends). [ ]: non-standard residue; d: D form. Phe(3-OMe) = COc1cccc(C[C@H](N)C(=O)O)c1; Phe(3-F) = N[C@@H](Cc1cccc(F)c1)C(=O)O; Phe(2-F) = N[C@@H](Cc1ccccc1F)C(=O)O; Phe(2-Me) = Cc1ccccc1C[C@H](N)C(=O)O; 3Pal = N[C@@H](Cc1cccnc1)C(=O)O; Cha = N[C@@H](CC1CCCCC1)C(=O)O; Agb = N=C(N)NCC[C@H](N)C(=O)O; Orn = NCCC[C@H](N)C(=O)O

Biological target: T1, Coagulation factor XII (Homo sapiens, UniProt P00748)
T1 sequence (P00748 whole entry): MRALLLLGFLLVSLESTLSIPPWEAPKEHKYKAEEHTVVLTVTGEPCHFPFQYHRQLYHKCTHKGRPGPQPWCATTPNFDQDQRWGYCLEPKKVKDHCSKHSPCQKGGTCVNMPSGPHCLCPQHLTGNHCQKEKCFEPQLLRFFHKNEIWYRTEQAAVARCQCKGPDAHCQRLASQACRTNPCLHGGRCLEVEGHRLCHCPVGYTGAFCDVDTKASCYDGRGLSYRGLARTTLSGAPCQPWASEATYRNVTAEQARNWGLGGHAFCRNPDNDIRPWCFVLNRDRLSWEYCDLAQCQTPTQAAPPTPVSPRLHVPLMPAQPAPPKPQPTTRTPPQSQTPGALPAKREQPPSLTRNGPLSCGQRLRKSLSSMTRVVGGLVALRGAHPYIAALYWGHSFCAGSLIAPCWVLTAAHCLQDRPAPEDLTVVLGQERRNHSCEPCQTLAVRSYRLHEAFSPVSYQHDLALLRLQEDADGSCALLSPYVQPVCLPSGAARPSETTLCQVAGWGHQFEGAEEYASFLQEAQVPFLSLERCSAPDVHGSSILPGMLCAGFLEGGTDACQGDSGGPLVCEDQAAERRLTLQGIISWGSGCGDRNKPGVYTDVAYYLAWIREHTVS
Assay: Inhibition of human factor 12a using H-D-Pro-Phe-Arg-p-nitroanilide as chromogenic substrate assessed as liberation of p-nitroaniline measured every 5 mins for 60 min by multimode plate reader analysis

Row | Compound | IC50 [µM]
1 | CC(C)C[C@@H]1NC(=O)[C@H](Cc2ccc(O)cc2)NC(=O)CSC[C@@H](C(N)=O)NC(=O)CNC(=O)CNC(=O)[C@H](CCCNC(=N)N)NC(=O)[C@H](C)NC(=O)[C@H](CCCCN)NC(=O)[C@@H]2CCCN2C(=O)[C@H](CCCNC(=N)N)NC(=O)[C@H](Cc2ccccc2)NC(=O)[C@H](CCCNC(=N)N)NC1=O ({CH2CO}-YLRFRPKARGGC-NH2; thioether N-12) | 0.05
2 | CC(C)C[C@@H]1NC(=O)[C@H](Cc2ccc(O)cc2)NC(=O)CSC[C@@H](C(N)=O)NC(=O)CNC(=O)CNC(=O)[C@H](CCCNC(=N)N)NC(=O)[C@H](CC(=O)O)NC(=O)[C@H](CCCCN)NC(=O)[C@@H]2CCCN2C(=O)[C@H](CCCNC(=N)N)NC(=O)[C@H](C)NC(=O)[C@H](CCCNC(=N)N)NC1=O ({CH2CO}-YLRARPKDRGGC-NH2; thioether N-12) | 5.1
3 | CC(C)C[C@@H]1NC(=O)[C@H](Cc2ccc(O)cc2)NC(=O)CSC[C@@H](C(N)=O)NC(=O)CNC(=O)CNC(=O)[C@H](CCCNC(=N)N)NC(=O)[C@H](CC(=O)O)NC(=O)[C@H](CCCCN)NC(=O)[C@@H]2CCCN2C(=O)[C@H](CCNC(=N)N)NC(=O)[C@H](Cc2ccccc2)NC(=O)[C@H](CCCNC(=N)N)NC1=O ({CH2CO}-YLRF[Agb]PKDRGGC-NH2; thioether N-12) | 3.3
4 | CC(C)C[C@@H]1NC(=O)[C@H](Cc2ccc(O)cc2)NC(=O)CSC[C@@H](C(N)=O)NC(=O)CNC(=O)CNC(=O)[C@H](CCCNC(=N)N)NC(=O)[C@H](CC(=O)O)NC(=O)[C@H](CCCCN)NC(=O)[C@@H]2CCCN2C(=O)[C@H](CCCNC(=N)N)NC(=O)[C@H](Cc2ccccc2F)NC(=O)[C@H](CCCNC(=N)N)NC1=O ({CH2CO}-YLR[Phe(2-F)]RPKDRGGC-NH2; thioether N-12) | 0.053
5 | CC(C)C[C@@H]1NC(=O)[C@H](Cc2ccc(O)cc2)NC(=O)CSC[C@@H](C(N)=O)NC(=O)CNC(=O)CNC(=O)[C@H](CCCNC(=N)N)NC(=O)[C@H](CC(=O)O)NC(=O)[C@H](CCCCN)NC(=O)[C@@H]2CCCN2C(=O)[C@H](CCCNC(=N)N)NC(=O)[C@H](CC2CCCCC2)NC(=O)[C@H](CCCNC(=N)N)NC1=O ({CH2CO}-YLR[Cha]RPKDRGGC-NH2; thioether N-12) | 0.053
6 | COc1ccc(C[C@@H]2NC(=O)[C@H](CCCNC(=N)N)NC(=O)[C@H](CC(C)C)NC(=O)[C@H](Cc3ccc(O)cc3)NC(=O)CSC[C@@H](C(N)=O)NC(=O)CNC(=O)CNC(=O)[C@H](CCCNC(=N)N)NC(=O)[C@H](CC(=O)O)NC(=O)[C@H](CCCCN)NC(=O)[C@@H]3CCCN3C(=O)[C@H](CCCNC(=N)N)NC2=O)cc1 ({CH2CO}-YLRY(Me)RPKDRGGC-NH2; thioether N-12) | 0.56
7 | CC(C)C[C@@H]1NC(=O)[C@H](Cc2ccc(O)cc2)NC(=O)CSC[C@@H](C(N)=O)NC(=O)CNC(=O)CNC(=O)[C@H](CCCNC(=N)N)NC(=O)[C@H](CC(=O)O)NC(=O)[C@H](CCCCN)NC(=O)[C@@H]2CCCN2C(=O)[C@H](CCCNC(=N)N)NC(=O)[C@H](Cc2cccc(F)c2)NC(=O)[C@H](CCCNC(=N)N)NC1=O ({CH2CO}-YLR[Phe(3-F)]RPKDRGGC-NH2; thioether N-12) | 0.066
8 | CC(C)C[C@@H]1NC(=O)[C@H](Cc2ccc(O)cc2)NC(=O)CSC[C@@H](C(N)=O)NC(=O)CNC(=O)CNC(=O)[C@H](CCCNC(=N)N)NC(=O)[C@H](CC(=O)O)NC(=O)[C@H](CCCCN)NC(=O)[C@@H]2CCCN2C(=O)[C@H](CCCCN)NC(=O)[C@H](Cc2ccccc2)NC(=O)[C@H](CCCNC(=N)N)NC1=O ({CH2CO}-YLRFKPKDRGGC-NH2; thioether N-12) | 0.065
9 | COc1cccc(C[C@@H]2NC(=O)[C@H](CCCNC(=N)N)NC(=O)[C@H](CC(C)C)NC(=O)[C@H](Cc3ccc(O)cc3)NC(=O)CSC[C@@H](C(N)=O)NC(=O)CNC(=O)CNC(=O)[C@H](CCCNC(=N)N)NC(=O)[C@H](CC(=O)O)NC(=O)[C@H](CCCCN)NC(=O)[C@@H]3CCCN3C(=O)[C@H](CCCNC(=N)N)NC2=O)c1 ({CH2CO}-YLR[Phe(3-OMe)]RPKDRGGC-NH2; thioether N-12) | 0.12
10 | CC(C)C[C@@H]1NC(=O)[C@H](Cc2ccc(O)cc2)NC(=O)CSC[C@@H](C(N)=O)NC(=O)CNC(=O)[C@H](C)NC(=O)[C@H](CCCNC(=N)N)NC(=O)[C@H](CC(=O)O)NC(=O)[C@H](CCCCN)NC(=O)[C@@H]2CCCN2C(=O)[C@H](CCCNC(=N)N)NC(=O)[C@H](Cc2ccccc2)NC(=O)[C@H](CCCNC(=N)N)NC1=O ({CH2CO}-YLRFRPKDRAGC-NH2; thioether N-12) | 27
11 | CC(C)C[C@@H]1NC(=O)[C@H](CCCNC(=N)N)NC(=O)[C@H](C)NC(=O)[C@H](Cc2ccc(O)cc2)NC(=O)CSC[C@@H](C(N)=O)NC(=O)CNC(=O)CNC(=O)[C@H](CCC(N)=O)NC(=O)[C@H](CC(N)=O)NC(=O)[C@H]([C@@H](C)O)NC(=O)[C@@H]2CCCN2C(=O)[C@H](CCCCN)NC1=O ({CH2CO}-YARLKPTNQGGC-NH2; thioether N-12) | 410
12 | CC(C)C[C@@H]1NC(=O)[C@H](Cc2cccnc2)NC(=O)CSC[C@@H](C(N)=O)NC(=O)CNC(=O)CNC(=O)[C@H](CCCNC(=N)N)NC(=O)[C@H](CC(=O)O)NC(=O)[C@H](CCCCN)NC(=O)[C@@H]2CCCN2C(=O)[C@H](CCCNC(=N)N)NC(=O)[C@H](Cc2ccccc2)NC(=O)[C@H](CCCNC(=N)N)NC1=O ({CH2CO}-[3Pal]LRFRPKDRGGC-NH2; thioether N-12) | 15
13 | COc1cccc(C[C@@H]2NC(=O)CSC[C@@H](C(N)=O)NC(=O)CNC(=O)CNC(=O)[C@H](CCCNC(=N)N)NC(=O)[C@H](CC(=O)O)NC(=O)[C@H](CCCCN)NC(=O)[C@@H]3CCCN3C(=O)[C@H](CCCNC(=N)N)NC(=O)[C@H](Cc3ccccc3)NC(=O)[C@H](CCCNC(=N)N)NC(=O)[C@H](CC(C)C)NC2=O)c1 ({CH2CO}-[Phe(3-OMe)]LRFRPKDRGGC-NH2; thioether N-12) | 0.64
14 | CC(C)C[C@@H]1NC(=O)[C@H](Cc2ccc(O)cc2)NC(=O)CSC[C@@H](C(N)=O)NC(=O)CNC(=O)CNC(=O)[C@H](CCCNC(=N)N)NC(=O)[C@H](CC(=O)O)NC(=O)[C@H](CCCCN)NC(=O)[C@@H]2CCCN2C(=O)[C@H](CCCN)NC(=O)[C@H](Cc2ccccc2)NC(=O)[C@H](CCCNC(=N)N)NC1=O ({CH2CO}-YLRF[Orn]PKDRGGC-NH2; thioether N-12) | 2.1
15 | CC(C)C[C@@H]1NC(=O)[C@H](Cc2ccc(O)cc2)NC(=O)CSC[C@@H](C(N)=O)NC(=O)CNC(=O)CNC(=O)[C@H](CCCNC(=N)N)NC(=O)[C@H](CC(=O)O)NC(=O)[C@H](CCCCN)NC(=O)[C@@H]2CCCN2C(=O)[C@H](C)NC(=O)[C@H](Cc2ccccc2)NC(=O)[C@H](CCCNC(=N)N)NC1=O ({CH2CO}-YLRFAPKDRGGC-NH2; thioether N-12) | 79
16 | Cc1ccccc1C[C@@H]1NC(=O)[C@H](CCCNC(=N)N)NC(=O)[C@H](CC(C)C)NC(=O)[C@H](Cc2ccc(O)cc2)NC(=O)CSC[C@@H](C(N)=O)NC(=O)CNC(=O)CNC(=O)[C@H](CCCNC(=N)N)NC(=O)[C@H](CC(=O)O)NC(=O)[C@H](CCCCN)NC(=O)[C@@H]2CCCN2C(=O)[C@H](CCCNC(=N)N)NC1=O ({CH2CO}-YLR[Phe(2-Me)]RPKDRGGC-NH2; thioether N-12) | 0.043
17 | CC(C)C[C@@H]1NC(=O)[C@H](C)NC(=O)CSC[C@@H](C(N)=O)NC(=O)CNC(=O)CNC(=O)[C@H](CCC(N)=O)NC(=O)[C@H](CC(N)=O)NC(=O)[C@H]([C@@H](C)O)NC(=O)[C@@H]2CCCN2C(=O)[C@H](CCCCN)NC(=O)[C@H](CC(C)C)NC(=O)[C@H](CCCNC(=N)N)NC1=O ({CH2CO}-ALRLKPTNQGGC-NH2; thioether N-12) | 290
